Results published in ChEMBL document CHEMBL1128845, “Novel trityl linked drug immunoconjugates for cancer therapy” (Bioorg Med Chem Lett, 1995).
Values after ≈ are worked out from the molar mass of the structure shown.

How the values were obtained:
[1] = Conjugation ratio (CR) indicating the number of moles of compound required per 1 mole of antibody (having Molar input ratio (MIR) = 8) was determined
[2] = tested on: LS174T; assay: Concentration required to inhibit the incorporation of [3H]leucine to 50 percent of control uptake in LS174T (CEA +ve) Human Colon Carcinoma cells; type: functional, cell-based

CR [1] | IC50 [2] | Structure (SMILES)
5.73 | 4.94 µg/mL (≈ 8 µM) | COc1ccc(C(Nc2nc(N)nc3c2ncn3[C@@H]2O[C@H](CO)[C@@H](O)C2(F)F)(c2ccccc2)c2ccc(C(N)=O)cc2)cc1 (stereo partly drawn)
6.44 | 0.352 µg/mL (≈ 0.544 µM) | COc1ccc(C(Nc2nc(N)nc3c2ncn3[C@@H]2O[C@H](CO)[C@@H](O)C2(F)F)(c2ccc(OC)cc2)c2cccc(C(N)=O)c2)cc1
5.2 | 6.04 µg/mL (≈ 10 µM) | Cc1ccc(C(Nc2nc(N)nc3c2ncn3[C@@H]2O[C@H](CO)[C@@H](O)C2(F)F)(c2ccccc2)c2ccc(C(N)=O)cc2)cc1 (stereo partly drawn)
7.49 | 2.71 µg/mL (≈ 4.29 µM) | COc1ccc(C(Nc2nc(N)nc3c2ncn3[C@@H]2O[C@H](CO)[C@@H](O)C2(F)F)(c2ccc(C)cc2)c2ccc(C(N)=O)cc2)cc1 (stereo partly drawn)
– | 0.26 µg/mL (≈ 0.86 µM) | Nc1nc(N)c2ncn([C@@H]3O[C@H](CO)[C@@H](O)C3(F)F)c2n1
7.44 | 0.27 µg/mL (≈ 0.417 µM) | COc1ccc(C(Nc2nc(N)nc3c2ncn3[C@@H]2O[C@H](CO)[C@@H](O)C2(F)F)(c2ccc(OC)cc2)c2ccc(C(N)=O)cc2)cc1
4.44 | 10 µg/mL (≈ 17 µM) | NC(=O)c1ccc(C(Nc2nc(N)nc3c2ncn3[C@@H]2O[C@H](CO)[C@@H](O)C2(F)F)(c2ccccc2)c2ccccc2)cc1
